Where two headings read alike, the source gives them in different places.
How the values were obtained:
Assay in all cases: Ras GTP binding domain inhibition assay (Cy3-GTP/Cy5-GTP competition)
KRas G12D mutant = target: T1, KRas G12D mutant (Homo sapiens, UniProt P01116, G12D); conditions: 20 μM
T1 construct: fused on or other part: His tag, used for capture on nickel-coated plates
Procedure, shortened: (§1)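 His-tagged Ras immobilized on nickel-coated wells in Tris buffer (pH 7.4 or 7.0) with 1 mM MgCl2, 1 mM DTT, 1% DMSO. Compound (20 μM, or serial dilution for IC50) incubated 3 hours at room temperature, ± Sos (residues 556-1049) in final hour. Bound 100 nM Cy3-/Cy5-GTP read after 45 minutes and washing.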

KRas Q61H mutant = tested on: KRas Q61H mutant; design: species or system human; conditions: 20 μM
Procedure, shortened: as §1

KRas G12C mutant = tested on: KRas G12C mutant; design: species or system human; conditions: 20 μM
Procedure, shortened: as §1

KRas wild type = tested on: KRas wild type; design: species or system human; conditions: 20 μM; for KRas wild type: % inh.: without SOS; for KRas wild type % inh.: without SOS (Table 7A)
Procedure, shortened: as §1

[1] = with SOS, read-out: KRas G-12D mutant + SOS: % inh.
[2] = without SOS, read-out: KRas G12D mutant: % inh.
[3] = with SOS (Table 7A), read-out: KRas G12D mutant + SOS: % inh.
[4] = without SOS (Table 7A), read-out: KRas G12D mutant: % inh.

| SMILES | inhibition at 20 µM (KRas G12D mutant; [1]) | inhibition at 20 µM (KRas G12D mutant; [2]) | KRas Q61H mutant + SOS: % inh. (KRas Q61H mutant; with SOS) | KRas Q61H mutant: % inh. (KRas Q61H mutant; without SOS) | KRas G12C mutant + SOS: % inh. (KRas G12C mutant; with SOS) | KRas G12C mutant: % inh. (KRas G12C mutant; without SOS) | KRas wild type + SOS: % inh. (KRas wild type; with SOS) | KRas wild type: % inh. (KRas wild type) | inhibition at 20 µM (KRas G12D mutant; [3]) | inhibition at 20 µM (KRas G12D mutant; [4]) | KRas Q61H mutant + SOS: % inh. (KRas Q61H mutant; with SOS (Table 7A)) | KRas Q61H mutant: % inh. (KRas Q61H mutant; without SOS (Table 7A)) | KRas G12C mutant + SOS: % inh. (KRas G12C mutant; with SOS (Table 7A)) | KRas G12C mutant: % inh. (KRas G12C mutant; without SOS (Table 7A)) | KRas wild type + SOS: % inh. (KRas wild type; with SOS (Table 7A)) | KRas wild type % inh. (KRas wild type) |
| --- | --- | --- | --- | --- | --- | --- | --- | --- | --- | --- | --- | --- | --- | --- | --- | --- |
| COc1c(O)nc(-c2ccccn2)nc1Oc1cnn(C)c1 [drawing 803] | 51 to 75% | 51 to 75% | C (51-75% inhibition) | D (76-100% inhibition) | C (51-75% inhibition) | C (51-75% inhibition) | B (26-50% inhibition) | D (76-100% inhibition) |  |  |  |  |  |  |  |  |
| Cn1ccc(-c2sc3nc(-c4nccn4C)nc(N4CCC5(CCOC5)C4)c3c2-c2ccccc2)n1 (centres unmarked) [drawing 857] | 1 to 25% | 26 to 50% | B (26-50% inhibition) | B (26-50% inhibition) | B (26-50% inhibition) | A (1-25% inhibition) | A (1-25% inhibition) | A (1-25% inhibition) |  |  |  |  |  |  |  |  |
| COc1ccc(Oc2nc(-c3ccccn3)nc(O)c2OC)cc1 [drawing 815] | 26 to 50% | 76 to 100% | C (51-75% inhibition) | D (76-100% inhibition) | C (51-75% inhibition) | D (76-100% inhibition) | B (26-50% inhibition) | D (76-100% inhibition) |  |  |  |  |  |  |  |  |
| CO[C@H]1CC[C@@H](Nc2nc(-c3nccn3C)nc3sc(-c4ccn(C(C)C)n4)c(C)c23)C1 [drawing 919] |  |  |  |  |  |  |  |  | 51 to 75% | 51 to 75% | D (76-100% inhibition) | D (76-100% inhibition) | D (76-100% inhibition) | C (51-75% inhibition) | D (76-100% inhibition) | D (76-100% inhibition) |
| Oc1nc(-c2ncc3ccccn23)nc2c(-c3ccccn3)csc12 [drawing 834] | 51 to 75% | 76 to 100% | C (51-75% inhibition) | C (51-75% inhibition) | C (51-75% inhibition) | C (51-75% inhibition) | C (51-75% inhibition) | C (51-75% inhibition) |  |  |  |  |  |  |  |  |
| COc1cccc(-c2csc3c(O)nc(-c4nccn4C)nc23)c1Cl [drawing 878] | 1 to 25% | 1 to 25% | A (1-25% inhibition) | A (1-25% inhibition) | A (1-25% inhibition) | A (1-25% inhibition) | A (1-25% inhibition) | A (1-25% inhibition) |  |  |  |  |  |  |  |  |
| COCCCNc1nc(-c2nccn2C)nc2sc(-c3ccn(C)n3)c(-c3ccccc3)c12 [drawing 866] | 26 to 50% | 1 to 25% | B (26-50% inhibition) | B (26-50% inhibition) | B (26-50% inhibition) | A (1-25% inhibition) | C (51-75% inhibition) | C (51-75% inhibition) |  |  |  |  |  |  |  |  |
| COCC1CCN(c2nc(-c3nccn3C)nc3sc(-c4ccn(C)n4)c(-c4ccccc4)c23)C1 (centres unmarked) [drawing 858] | 26 to 50% | 26 to 50% | D (76-100% inhibition) | C (51-75% inhibition) | C (51-75% inhibition) | B (26-50% inhibition) | C (51-75% inhibition) | 0 (0% inhibition) |  |  |  |  |  |  |  |  |
| COC1CCN(C(=O)c2sc3nc(-c4nccn4C)nc(N[C@H]4C[C@@H](OC)C4)c3c2-c2ccccc2)C1 (some centres unmarked) [drawing 923] |  |  |  |  |  |  |  |  | 51 to 75% | 51 to 75% | C (51-75% inhibition) | C (51-75% inhibition) | C (51-75% inhibition) | C (51-75% inhibition) | C (51-75% inhibition) | C (51-75% inhibition) |
| COCCNc1nc(-c2nccn2C)nc2sc(-c3cccc(OC)c3)c(-c3ccc(OC)cc3)c12 [drawing 875] | 76 to 100% | 51 to 75% | D (76-100% inhibition) | B (26-50% inhibition) | D (76-100% inhibition) | C (51-75% inhibition) | D (76-100% inhibition) | B (26-50% inhibition) |  |  |  |  |  |  |  |  |
| CO[C@H]1CC[C@@H](Nc2nc(-c3nccn3C)nc3sc(-c4ccn(C(C)C)n4)c(-c4ccccc4)c23)C1 [drawing 912] |  |  |  |  |  |  |  |  | 51 to 75% | 51 to 75% | D (76-100% inhibition) | D (76-100% inhibition) | D (76-100% inhibition) | C (51-75% inhibition) | D (76-100% inhibition) | D (76-100% inhibition) |
| Cn1ccc(-c2sc3nc(-c4nccn4C)nc(NCC4CCOC4)c3c2-c2ccccc2)n1 (centres unmarked) [drawing 861] | 1 to 25% | 26 to 50% | C (51-75% inhibition) | B (26-50% inhibition) | C (51-75% inhibition) | 0 (0% inhibition) | B (26-50% inhibition) | 0 (0% inhibition) |  |  |  |  |  |  |  |  |
| COc1ccc(Cn2cnc(-c3nc(O)c4scc(-c5ccccn5)c4n3)c2)cc1 [drawing 839] | 0% | 1 to 25% | A (1-25% inhibition) | B (26-50% inhibition) | A (1-25% inhibition) | B (26-50% inhibition) | A (1-25% inhibition) | A (1-25% inhibition) |  |  |  |  |  |  |  |  |
| Oc1nc(-c2cn3cccnc3n2)nc2c(-c3ccccn3)csc12 [drawing 848] | 1 to 25% | 1 to 25% | A (1-25% inhibition) | A (1-25% inhibition) | A (1-25% inhibition) | 0 (0% inhibition) | A (1-25% inhibition) | A (1-25% inhibition) |  |  |  |  |  |  |  |  |
| Oc1nc(-c2cn3ccccc3n2)nc2c(-c3ccccn3)csc12 [drawing 816] | 1 to 25% | 26 to 50% | B (26-50% inhibition) | B (26-50% inhibition) | B (26-50% inhibition) | B (26-50% inhibition) | A (1-25% inhibition) | C (51-75% inhibition) |  |  |  |  |  |  |  |  |
| COc1nc(-c2ccccn2)nc(Nc2cnn(C)c2)c1OC [drawing 794] | 0% | 0% | A (1-25% inhibition) | 0 (0% inhibition) | A (1-25% inhibition) | 0 (0% inhibition) | 0 (0% inhibition) | A (1-25% inhibition) |  |  |  |  |  |  |  |  |
